We go through 2 molecules from US7718804B2, “Quaternary nitrogen heterocyclic compounds for detecting aqueous monosaccharides in physiological fluids” (University of Maryland Biotechnology Institute, priority 2003, dated 2010).

Assay [1] in a line: Fluorescence intensity response to fructose in solution. Here is the method:
All steady state fluorescence measurements were performed in a 4×1×1 cm fluorometric plastic cuvette, using a Varian Cary Eclipse fluorometer, and all absorption measurements were performed using a Varian UV/VIS 50 spectrophotometer.
The emission spectra of o-BMQBA in the presence of varying concentrations of fructose and glucose are shown in FIG. 4A and FIG. 4B, respectively. It can be seen that the fluorescence intensity of o-BMQBA in pH 7.5 phosphate buffer is inversely proportional to the glucose and fructose concentrations. […] A plot of the intensity ratio, I′/I, at λ=427 nm, where I′ and I represent the fluorescence intensities in the absence and presence of sugar, respectively, is shown in FIG. 4C. […] It is noted that the concentration of fructose in blood is ˜10 times lower than glucose, a relationship which is also thought to occur in tears (N. Dicesare, et. al., J. Bio. Med. Opt., 7(4), 538-545 (2002)).
The intensity ratio for o-BMQBA in buffered media (pH 5-8) at various glucose concentrations is shown in FIG. 8A, wherein I′ corresponds to the intensity in the absence of glucose and I corresponds to the intensity at the specified glucose concentration. In addition, the intensity ratio for o-BMQBA in buffered media (pH 5-8) at low glucose concentrations, typical of those found in tears, is shown in FIG. 8B. Correspondingly, the intensity ratio for o-BMQBA in buffered media (pH 5-8) at various fructose concentrations is shown in FIGS. 9A and 9B.
Because physiological fluids contain chloride ions, which are well known quenchers of quinolinium fluorescence (Geddes, C. D., Meas. Sci. Technol., 12(9), R53-R88 (2001); Geddes, C. D., et al., J. Heterocyclic Chem., 36(4), 949-951 (1999); Geddes, C. D., et al., Anal. Biochem., 293(1), 60-66 (2001)), the fluorescence intensity and intensity ratios of o-BMQBA in pH 7.5 buffer having 100 mM NaCl with varying quantities of fructose or glucose was measured and shown in FIGS. 10 and 11, respectively, where I′ corresponds to the intensity in the absence of fructose and I corresponds to the intensity at the specified fructose concentration. It can be seen that although chloride quenched the intensity of the emission in the presence of fructose, the intensity ratio change for fructose is still significant, amounting to a 4-fold decrease in fluorescence intensity at 60 mM fructose (see FIG. 10B). The quenching effect was less significant at lower concentrations of fructose (see FIG. 10C) and for glucose concentrations, both high and low (see FIGS. 11B and 11C). This minimal quenching effect for BMQBA is supported by the calculated Stern-Volmer constants, KSV, for the BMQBA compounds in water, which were determined to be 44.0 M^−1, 20.0 M^−1, 17.0 M^−1 and 35.0 M^−1 for o-BMQBA, m-BMQBA, p-BMQBA and BMQ, respectively. These are small quenching constants that are readily accounted for using simple corrections in the fluorescence signal, as readily determined by one skilled in the art of fluorescence.
(§1) The intensity ratio at λ=450 nm for o-BMOQBA in buffered media (pH 5-8) at various glucose concentrations is shown in FIG. 16A, wherein I′ corresponds to the intensity in the absence of glucose and I corresponds to the intensity at the specified glucose concentration. In addition, the intensity ratio for o-BMOQBA in buffered media (pH 5-8) at low glucose concentrations, typical of those found in tears, is shown in FIG. 16B. Correspondingly, the intensity ratio for o-BMOQBA in buffered media (pH 5-8) at various fructose concentrations is shown in FIGS. 17A and 17B.
Each BAF was tested to determine the usefulness of these BAFs with regard to tear glucose sensing in a contact lens. Towards that end, both solution-based and doped contact lens-based measurements, the methods of which are described above, were performed and subsequently compared. […]

The nature of assay [2]: Dissociation constant from fluorescence titration with glucose. The format is binding. The settings on record: pH 7.5 phosphate buffer. From the text: Stability (KS (mM^−1) and dissociation (KD) constants were obtained by fitting the titration curves with sugar to the relation:
[formula] where Imin and Imax are initial (no sugar) and final (plateau) fluorescence intensities of the titration curves and KD=(1/KS).

Assay [3] is described as follows: Fluorescence intensity response to glucose in solution. The settings on record: for decrease in fluorescence intensity: 0.60 mM glucose, pH 6 to 7 range, buffered solution. As for the experimental part: All steady state fluorescence measurements were performed in a 4×1×1 cm fluorometric plastic cuvette, using a Varian Cary Eclipse fluorometer, and all absorption measurements were performed using a Varian UV/VIS 50 spectrophotometer. […]
The emission spectra of o-BMOQBA in the presence of varying concentrations of glucose and fructose are shown in FIG. 12A and FIG. 12B, respectively. It can be seen that the fluorescence intensity of o-BMOQBA in pH 7.5 phosphate buffer is inversely proportional to the glucose and fructose concentrations. […] A plot of the intensity ratio, I′/I, at λ=450 nm, where I′ and I represent the fluorescence intensities in the absence and presence of sugar, respectively, is shown in FIG. 12C. […] Referring to FIG. 12C, there is a 2.8-fold change in intensity by the addition of 60 mM sugar.
as §1
Each BAF was tested to determine the usefulness of these BAFs with regard to tear glucose sensing in a contact lens. Towards that end, both solution-based and doped contact lens-based measurements, the methods of which are described above, were performed and subsequently compared.

In general, Kd refers to the concentration at which binding is half-saturated. High values mean lower affinity, low ones higher affinity.

Structures are written as SMILES.

On to `COc1ccc2c(ccc[n+]2Cc2ccccc2B(O)O)c1.[Br-]` [o-BMOQBA, N-(2-boronobenzyl)-6-methoxyquinolinium bromide], for which the “decrease in fluorescence intensity” value in assay [1] (0.50 mM fructose, pH 6 to 7 range, buffered solution) was 10-40%; in assay [3], 5-10%. This molecule showed a Kd in assay [2] of 49.5 mM. Also, the “change in intensity (I′/I at 450 nm)” value in assay [3] (addition of 60 mM sugar, pH 7.5 phosphate buffer (FIG. 12C)) is reported as 2.8 fold.

Regarding `Cc1ccc2c(ccc[n+]2Cc2ccccc2B(O)O)c1.[Br-]` [o-BMQBA, N-(2-boronobenzyl)-6-methylquinolinium bromide], the “decrease in fluorescence intensity” value in assay [1] (60 mM fructose, pH 7.5 buffer with 100 mM NaCl) is listed as 4 fold; in assay [3], about 10%. In assay [2], this molecule came in with a Kd of 100 mM.
